In publication PMC8987054, “Structural basis for PoxtA-mediated resistance to phenicol and oxazolidinone antibiotics” (Nature Communications, 2022):
Converted amounts (≈) assume the structure as drawn. Where two headings read alike, the source gives them in different places.

Tests used:
E. faecium 9-F-6 [1] = tested on: T1, E. faecium 9-F-6; assay: microbe, parasite or virus in culture; parameters: Gradient test MIC (MIC Test Strip, Liofilchem), multidrug-resistant clinical isolate; settings: Enterococcus faecium, 9F6, read-out: MIC GRAD
T1 construct: 9-F-6 (ST872)
Excerpt: (§1) ST872 is a single locus variant of ST80 which is a pandemic hospital-adapted genetic lineage. […] The results (MICs) were interpreted according to EUCAST clinical breakpoints v.

E. faecium 9-F-6 [2] = tested on: T1, E. faecium 9-F-6; assay: microbe, parasite or virus in culture; parameters: Broth microdilution MIC, EUENCF Sensititre plate, multidrug-resistant clinical isolate; settings: Enterococcus faecium, 9F6, read-out: MIC BMD
Excerpt: as §1

SMILES | MIC (E. faecium 9-F-6 [1]) [µg/mL] | MIC (E. faecium 9-F-6 [2]) [µg/mL]
CCC[C@@H]1C[C@@H](C(=O)N[C@@H]([C@H]2O[C@H](SC)[C@H](O)[C@@H](O)[C@H]2O)[C@H](C)Cl)N(C)C1 [Clindamycin] | > 256 | –
CC(=O)NC[C@H]1CN(c2ccc(N3CCOCC3)c(F)c2)C(=O)O1 [Linezolid] | – | 8 (≈ 23.7 µM)
CN[C@@H]1[C@H](O[C@H]2[C@H](O[C@H]3[C@H](O)[C@@H](O)[C@H](N=C(N)N)[C@@H](O)[C@@H]3N=C(N)N)O[C@@H](C)[C@]2(O)C=O)O[C@@H](CO)[C@H](O)[C@H]1O [Streptomycin] | – | > 1020
C[C@@H](O)[C@H]1C(=O)N2C(C(=O)O)=C(SCCNC=N)C[C@H]12 [Imipenem] | – | > 16
CN[C@H](CC(C)C)C(=O)N[C@H]1C(=O)N[C@@H](CC(N)=O)C(=O)N[C@H]2C(=O)N[C@H]3C(=O)N[C@H](C(=O)N[C@H](C(=O)O)c4cc(O)cc(O)c4-c4cc3ccc4O)[C@H](O)c3ccc(c(Cl)c3)Oc3cc2cc(c3O[C@@H]2O[C@H](CO)[C@@H](O)[C@H](O)[C@H]2O[C@H]2C[C@](C)(N)[C@H](O)[C@H](C)O2)Oc2ccc(cc2Cl)[C@H]1O [Vancomycin] | > 256 | > 16
CN(C)c1cc(NC(=O)CNC(C)(C)C)c(O)c2c1C[C@H]1C[C@H]3[C@H](N(C)C)C(O)=C(C(N)=O)C(=O)[C@@]3(O)C(O)=C1C2=O [Tigecycline] | – | 0.12 (≈ 0.205 µM)
O=C(N[C@H](CO)[C@H](O)c1ccc([N+](=O)[O-])cc1)C(Cl)Cl [Chloramphenicol] | 16 (≈ 49.5 µM) | –
CC1(C)S[C@@H]2[C@H](NC(=O)[C@H](N)c3ccc(O)cc3)C(=O)N2[C@H]1C(=O)O [Amoxicillin] | – | > 32
CNC(C)[C@@H]1CC[C@@H](N)[C@@H](O[C@H]2[C@H](O)[C@@H](O[C@H]3OC[C@](C)(O)[C@H](NC)[C@H]3O)[C@H](N)C[C@@H]2N)O1 (some centres unmarked) [Gentamicin] | > 1020 | > 256
C[C@H]1COc2c(N3CCN(C)CC3)c(F)cc3c(=O)c(C(=O)O)cn1c23 [Levofloxacin] | – | > 16
CC1(C)S[C@@H]2[C@H](NC(=O)[C@H](N)c3ccccc3)C(=O)N2[C@H]1C(=O)O [Ampicillin] | > 256 | > 32
